In PubChem BioAssay AID2060502 (Molecular Pharmacology Branch, DTP, NCI, 2025):

System: 885724-159-R-J1-PDC complex spheroid viability
Experiment: Anticancer human tumor 885724-159-R-J1-PDC patient-derived pancreatic adenocarcinoma cell line growth inhibition [GQUAD]
Settings: for IC50: curve of first compound; for viability, T/C: stronger effect = lower value; active = viability on the fitted dose curve at most 10% of control; inactive = the rest
How it was run: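 Tumor cells were grown as complex spheroids with HUVEC endothelial cells and mesenchymal stem cells as stroma. G-quadruplex stabilizers were combined with targeted agents over half-log dilutions from near the clinical Cmax, or from 10 microM.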

[1] = second compound 0.0316 µM, first compound 0.0316 µM
[2] = second compound 0.0316 µM, first compound 0.1 µM
[3] = second compound 0.0316 µM, first compound 0.316 µM
[4] = second compound 0.0316 µM, first compound 1 µM
[5] = second compound 0.0316 µM, first compound 3.16 µM
[6] = second compound 0.0316 µM, first compound 10 µM
[7] = second compound 0.1 µM, first compound 0.0316 µM
[8] = second compound 0.1 µM, first compound 0.1 µM
[9] = second compound 0.1 µM, first compound 0.316 µM
[10] = second compound 0.1 µM, first compound 1 µM
[11] = second compound 0.1 µM, first compound 3.16 µM
[12] = second compound 0.1 µM, first compound 10 µM
[13] = second compound 0.316 µM, first compound 0.0316 µM
[14] = second compound 0.316 µM, first compound 0.1 µM
[15] = second compound 0.316 µM, first compound 0.316 µM
[16] = second compound 0.316 µM, first compound 1 µM
[17] = second compound 0.316 µM, first compound 3.16 µM
[18] = second compound 0.316 µM, first compound 10 µM
[19] = second compound 1 µM, first compound 0.0316 µM
[20] = second compound 1 µM, first compound 0.1 µM
[21] = second compound 1 µM, first compound 0.316 µM
[22] = second compound 1 µM, first compound 1 µM
[23] = second compound 1 µM, first compound 3.16 µM
[24] = second compound 1 µM, first compound 10 µM
[25] = second compound 3.16 µM, first compound 0.0316 µM
[26] = second compound 3.16 µM, first compound 0.1 µM
[27] = second compound 3.16 µM, first compound 0.316 µM
[28] = second compound 3.16 µM, first compound 1 µM
[29] = second compound 3.16 µM, first compound 3.16 µM
[30] = second compound 3.16 µM, first compound 10 µM
[31] = second compound 10 µM, first compound 0.0316 µM
[32] = second compound 10 µM, first compound 0.1 µM
[33] = second compound 10 µM, first compound 0.316 µM
[34] = second compound 10 µM, first compound 1 µM
[35] = second compound 10 µM, first compound 3.16 µM
[36] = second compound 10 µM, first compound 10 µM
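Also: spheroids exposed to agents for seven days before readout.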
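For viability, T/C in this document: percent of vehicle control viability where 100% = DMSO wells.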

COc1ccc([C@@H](O)c2cc(-c3ncnc4cc(N5CCOCC5)ccc34)c(F)cc2Cl)nn1 + Cc1cnc(CNC(=O)c2c(=O)c3ccc(N4CCCN(C)CC4)nc3n3c2sc2ccccc23)cn1
4.18 µM: IC50 (second compound 1 µM)
2.87 µM: IC50 (second compound 3.16 µM)
2.36 µM: IC50 (second compound 10 µM)
6.18 µM: IC50 (second compound 0.1 µM)
5.43 µM: IC50 (second compound 0.0316 µM)
4.57 µM: IC50 (second compound 0.316 µM)
inactive: viability, T/C [1] 107% | viability, T/C [2] 112% | viability, T/C [3] 91.5% | viability, T/C [4] 92.3% | viability, T/C [5] 61.6% | viability, T/C [6] 34.9% | viability, T/C [7] 109% | viability, T/C [8] 96.7% | viability, T/C [9] 88.1% | viability, T/C [10] 88.8% | viability, T/C [11] 67.5% | viability, T/C [12] 37% | viability, T/C [13] 104% | viability, T/C [14] 98.9% | viability, T/C [15] 102% | viability, T/C [16] 82.9% | viability, T/C [17] 58.8% | viability, T/C [18] 32.9% | viability, T/C [19] 93.5% | viability, T/C [20] 81.5% | viability, T/C [21] 75.9% | viability, T/C [22] 75.7% | viability, T/C [23] 51.9% | viability, T/C [24] 35.1% | viability, T/C [25] 78.6% | viability, T/C [26] 71.2% | viability, T/C [27] 70.4% | viability, T/C [28] 62.4% | viability, T/C [29] 49.9% | viability, T/C [30] 24.6% | viability, T/C [31] 73.2% | viability, T/C [32] 77.9% | viability, T/C [33] 67.6% | viability, T/C [34] 59.7% | viability, T/C [35] 47.5% | viability, T/C [36] 21.2%

Cn1ncnc1[C@H]1c2n[nH]c(=O)c3cc(F)cc(c23)N[C@@H]1c1ccc(F)cc1 + Cc1cnc(CNC(=O)c2c(=O)c3ccc(N4CCCN(C)CC4)nc3n3c2sc2ccccc23)cn1
inactive: viability, T/C (second compound 0.0316 µM, first compound 0.000999 µM) 90.3% | viability, T/C (second compound 0.0316 µM, first compound 0.00316 µM) 107% | viability, T/C (second compound 0.0316 µM, first compound 0.00999 µM) 96.3% | viability, T/C [1] 108% | viability, T/C (second compound 0.0316 µM, first compound 0.0999 µM) 90.3% | viability, T/C [3] 92.7% | viability, T/C (second compound 0.1 µM, first compound 0.000999 µM) 117% | viability, T/C (second compound 0.1 µM, first compound 0.00316 µM) 115% | viability, T/C (second compound 0.1 µM, first compound 0.00999 µM) 97.1% | viability, T/C [7] 100% | viability, T/C (second compound 0.1 µM, first compound 0.0999 µM) 98.8% | viability, T/C [9] 92.2% | viability, T/C (second compound 0.316 µM, first compound 0.000999 µM) 90.1% | viability, T/C (second compound 0.316 µM, first compound 0.00316 µM) 94.5% | viability, T/C (second compound 0.316 µM, first compound 0.00999 µM) 104% | viability, T/C [13] 96.3% | viability, T/C (second compound 0.316 µM, first compound 0.0999 µM) 96.6% | viability, T/C [15] 98.7% | viability, T/C (second compound 1 µM, first compound 0.000999 µM) 86.8% | viability, T/C (second compound 1 µM, first compound 0.00316 µM) 85.6% | viability, T/C (second compound 1 µM, first compound 0.00999 µM) 82.3% | viability, T/C [19] 79.2% | viability, T/C (second compound 1 µM, first compound 0.0999 µM) 87.4% | viability, T/C [21] 84.2% | viability, T/C (second compound 3.16 µM, first compound 0.000999 µM) 79.8% | viability, T/C (second compound 3.16 µM, first compound 0.00316 µM) 76.1% | viability, T/C (second compound 3.16 µM, first compound 0.00999 µM) 78.9% | viability, T/C [25] 76.1% | viability, T/C (second compound 3.16 µM, first compound 0.0999 µM) 81% | viability, T/C [27] 72.6% | viability, T/C (second compound 10 µM, first compound 0.000999 µM) 82.4% | viability, T/C (second compound 10 µM, first compound 0.00316 µM) 88.2% | viability, T/C (second compound 10 µM, first compound 0.00999 µM) 83% | viability, T/C [31] 89.4% | viability, T/C (second compound 10 µM, first compound 0.0999 µM) 105% | viability, T/C [33] 94.6%
> 0.316 µM: IC50 (second compound 0.0316 µM) | IC50 (second compound 0.1 µM) | IC50 (second compound 0.316 µM) | IC50 (second compound 1 µM) | IC50 (second compound 3.16 µM) | IC50 (second compound 10 µM)

COc1cc(C2c3cc4c(cc3C(OC3OC5COC(C)OC5C(O)C3O)C3COC(=O)C23)OCO4)cc(OC)c1O (stereo unspecified) + CN(C)c1ccc(Nc2c3ccc(NC(=O)CCN4CCCC4)cc3nc3cc(NC(=O)CCN4CCCC4)ccc23)cc1
> 10 µM: IC50 (second compound 0.0316 µM) | IC50 (second compound 0.1 µM) | IC50 (second compound 0.316 µM) | IC50 (second compound 1 µM) | IC50 (second compound 3.16 µM) | IC50 (second compound 10 µM)
inactive: viability, T/C [1] 94.3% | viability, T/C [2] 90.8% | viability, T/C [3] 84.4% | viability, T/C [4] 87.6% | viability, T/C [5] 73.3% | viability, T/C [6] 72.6% | viability, T/C [7] 114% | viability, T/C [8] 87.2% | viability, T/C [9] 83.2% | viability, T/C [10] 81.8% | viability, T/C [11] 80.6% | viability, T/C [12] 69.4% | viability, T/C [13] 104% | viability, T/C [14] 82.9% | viability, T/C [15] 90.8% | viability, T/C [16] 89.5% | viability, T/C [17] 76.3% | viability, T/C [18] 64.2% | viability, T/C [19] 91.6% | viability, T/C [20] 86.1% | viability, T/C [21] 70.4% | viability, T/C [22] 76.6% | viability, T/C [23] 76% | viability, T/C [24] 60.4% | viability, T/C [25] 73.1% | viability, T/C [26] 63.1% | viability, T/C [27] 69.5% | viability, T/C [28] 56.6% | viability, T/C [29] 63.4% | viability, T/C [30] 57.8% | viability, T/C [31] 73.4% | viability, T/C [32] 74% | viability, T/C [33] 68.2% | viability, T/C [34] 82.6% | viability, T/C [35] 71.4% | viability, T/C [36] 56.6%
